Source: PubChem BioAssay (NCI)
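Cells were grown in 96-well plates and exposed to each compound for 48 hours at five concentrations; endpoints were interpolated linearly between bracketing concentrations, or set to the highest concentration if not reached. GI50: concentration for 50% inhibition of growth. At the TGI there is no net growth.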

How the values were obtained:
Assay in all cases: NCI-60 cell line screen, 48 h
786-0 renal = system: 786-0 renal
A498 renal = system: A498 renal
A549 NSCLC = system: A549 NSCLC
ACHN renal = system: ACHN renal
BT-549 breast = system: BT-549 breast
CAKI-1 renal = system: CAKI-1 renal
CCRF-CEM leukemia = system: CCRF-CEM leukemia
COLO 205 colon = system: COLO 205 colon
DU-145 prostate = system: DU-145 prostate
EKVX NSCLC = system: EKVX NSCLC
HCC-2998 colon = system: HCC-2998 colon
HCT-116 colon = system: HCT-116 colon
HCT-15 colon = system: HCT-15 colon
HL-60(TB) leukemia = system: HL-60(TB) leukemia
HOP-62 NSCLC = system: HOP-62 NSCLC
HOP-92 NSCLC = system: HOP-92 NSCLC
HS 578T breast = system: HS 578T breast
HT29 colon = system: HT29 colon
IGROV1 ovarian = system: IGROV1 ovarian
K-562 leukemia = system: K-562 leukemia
KM12 colon = system: KM12 colon
LOX IMVI melanoma = system: LOX IMVI melanoma
M14 melanoma = system: M14 melanoma
MALME-3M melanoma = system: MALME-3M melanoma
MCF7 breast = system: MCF7 breast
MDA-MB-231 breast = system: MDA-MB-231 breast
MDA-MB-435 = system: MDA-MB-435
MDA-MB-468 breast = system: MDA-MB-468 breast
MOLT-4 leukemia = system: MOLT-4 leukemia
NCI-H226 lung = system: NCI-H226 lung
NCI-H23 lung = system: NCI-H23 lung
NCI-H460 lung = system: NCI-H460 lung
NCI-H522 lung = system: NCI-H522 lung
NCI/ADR-RES ovarian = system: NCI/ADR-RES ovarian
OVCAR-3 ovarian = system: OVCAR-3 ovarian
OVCAR-4 ovarian = system: OVCAR-4 ovarian
OVCAR-5 ovarian = system: OVCAR-5 ovarian
OVCAR-8 ovarian = system: OVCAR-8 ovarian
PC-3 prostate = system: PC-3 prostate
RPMI-8226 leukemia = system: RPMI-8226 leukemia
RXF 393 renal = system: RXF 393 renal
SF-268 CNS = system: SF-268 CNS
SF-295 CNS = system: SF-295 CNS
SF-539 CNS = system: SF-539 CNS
SK-MEL-2 melanoma = system: SK-MEL-2 melanoma
SK-MEL-28 melanoma = system: SK-MEL-28 melanoma
SK-MEL-5 melanoma = system: SK-MEL-5 melanoma
SK-OV-3 ovarian = system: SK-OV-3 ovarian
SN12C renal = system: SN12C renal
SNB-19 CNS = system: SNB-19 CNS
SNB-75 CNS = system: SNB-75 CNS
SR leukemia = system: SR leukemia
SW-620 colon = system: SW-620 colon
T-47D breast = system: T-47D breast
TK-10 renal = system: TK-10 renal
U251 CNS = system: U251 CNS
UACC-257 melanoma = system: UACC-257 melanoma
UACC-62 melanoma = system: UACC-62 melanoma
UO-31 renal = system: UO-31 renal

`O=C(Nc1ccc(Cl)c([N+](=O)[O-])c1)Nc1ccc(Cl)c([N+](=O)[O-])c1` was tested, and the GI50 (786-0 renal) was 2.91 µM, the TGI (786-0 renal) was 11.9 µM and the GI50 (A498 renal) was 3.33 µM. It also gave a TGI (A498 renal) of 10.8 µM, a GI50 (A549 NSCLC) of 4.29 µM and a TGI (A549 NSCLC) of 16.9 µM. It also gave a GI50 (ACHN renal) of 2.69 µM, a TGI (ACHN renal) of 7.44 µM and a GI50 (BT-549 breast) of 2.79 µM. The TGI (BT-549 breast) was 9.94 µM, the GI50 (CAKI-1 renal) was 2.98 µM and the TGI (CAKI-1 renal) was 10.5 µM. The GI50 (CCRF-CEM leukemia) was 2.95 µM, the TGI (CCRF-CEM leukemia) was 11.3 µM and the GI50 (COLO 205 colon) was 2.69 µM. For the same compound, the TGI (COLO 205 colon) was 6.97 µM, the GI50 (DU-145 prostate) was 3.66 µM and the TGI (DU-145 prostate) was 13.8 µM. For the same compound, the GI50 (EKVX NSCLC) was 3.56 µM, the TGI (EKVX NSCLC) was 13.1 µM and the GI50 (HCC-2998 colon) was 3.32 µM. The TGI (HCC-2998 colon) was 11.9 µM, the GI50 (HCT-116 colon) was 3.19 µM and the TGI (HCT-116 colon) was 9.34 µM. The GI50 (HCT-15 colon) was 2.83 µM, the TGI (HCT-15 colon) was 10.9 µM and the GI50 (HL-60(TB) leukemia) was 2.72 µM. The TGI (HL-60(TB) leukemia) was 7.11 µM, the GI50 (HOP-62 NSCLC) was 4.63 µM and the TGI (HOP-62 NSCLC) was 17.2 µM. For the same compound, the GI50 (HOP-92 NSCLC) was 2.28 µM, the TGI (HOP-92 NSCLC) was 6.53 µM and the GI50 (HS 578T breast) was 5.46 µM. It also gave a TGI (HS 578T breast) of 31.3 µM, a GI50 (HT29 colon) of 3.34 µM and a TGI (HT29 colon) of 13.3 µM. For the same compound, the GI50 (IGROV1 ovarian) was 3.02 µM, the TGI (IGROV1 ovarian) was 9.14 µM and the GI50 (K-562 leukemia) was 2.8 µM. The TGI (K-562 leukemia) was 14.1 µM, the GI50 (KM12 colon) was 3.49 µM and the TGI (KM12 colon) was 12.6 µM. The GI50 (LOX IMVI melanoma) was 3.13 µM, the TGI (LOX IMVI melanoma) was 9.64 µM and the GI50 (M14 melanoma) was 4.04 µM. For the same compound, the TGI (M14 melanoma) was 15 µM, the GI50 (MALME-3M melanoma) was 3.02 µM and the TGI (MALME-3M melanoma) was 11.8 µM. It also gave a GI50 (MCF7 breast) of 2.31 µM, a TGI (MCF7 breast) of 7.43 µM and a GI50 (MDA-MB-231 breast) of 3.05 µM. It also gave a TGI (MDA-MB-231 breast) of 8.99 µM, a GI50 (MDA-MB-435) of 3.71 µM and a TGI (MDA-MB-435) of 12.8 µM. The GI50 (MDA-MB-468 breast) was 2.2 µM, the TGI (MDA-MB-468 breast) was 6.48 µM and the GI50 (MOLT-4 leukemia) was 3.12 µM. The TGI (MOLT-4 leukemia) was 14.6 µM, the GI50 (NCI-H226 lung) was 2.92 µM and the TGI (NCI-H226 lung) was 10.1 µM. The GI50 (NCI-H23 lung) was 2.36 µM, the TGI (NCI-H23 lung) was 6.35 µM and the GI50 (NCI-H460 lung) was 3.22 µM. For the same compound, the TGI (NCI-H460 lung) was 10.6 µM, the GI50 (NCI-H522 lung) was 2.34 µM and the TGI (NCI-H522 lung) was 5.81 µM. It also gave a GI50 (NCI/ADR-RES ovarian) of 3.2 µM, a TGI (NCI/ADR-RES ovarian) of 11.2 µM and a GI50 (OVCAR-3 ovarian) of 2.6 µM. The TGI (OVCAR-3 ovarian) was 7.91 µM, the GI50 (OVCAR-4 ovarian) was 2.95 µM and the TGI (OVCAR-4 ovarian) was 11.3 µM. For the same compound, the GI50 (OVCAR-5 ovarian) was 7.12 µM, the TGI (OVCAR-5 ovarian) was 20.7 µM and the GI50 (OVCAR-8 ovarian) was 4.06 µM. The TGI (OVCAR-8 ovarian) was 14.7 µM, the GI50 (PC-3 prostate) was 2.83 µM and the TGI (PC-3 prostate) was 10.9 µM. For the same compound, the GI50 (RPMI-8226 leukemia) was 2.27 µM, the TGI (RPMI-8226 leukemia) was 6.32 µM and the GI50 (RXF 393 renal) was 11.3 µM. The TGI (RXF 393 renal) was 24.8 µM, the GI50 (SF-268 CNS) was 3.87 µM and the TGI (SF-268 CNS) was 15.8 µM. For the same compound, the GI50 (SF-295 CNS) was 2.46 µM, the TGI (SF-295 CNS) was 7.83 µM and the GI50 (SF-539 CNS) was 4.88 µM. The TGI (SF-539 CNS) was 17.3 µM, the GI50 (SK-MEL-2 melanoma) was 2.9 µM and the TGI (SK-MEL-2 melanoma) was 9.11 µM. For the same compound, the GI50 (SK-MEL-28 melanoma) was 3.78 µM, the TGI (SK-MEL-28 melanoma) was 14.4 µM and the GI50 (SK-MEL-5 melanoma) was 2.94 µM. For the same compound, the TGI (SK-MEL-5 melanoma) was 10.5 µM, the GI50 (SK-OV-3 ovarian) was 4.04 µM and the TGI (SK-OV-3 ovarian) was 15.5 µM. For the same compound, the GI50 (SN12C renal) was 2.92 µM, the TGI (SN12C renal) was 9.19 µM and the GI50 (SNB-19 CNS) was 2.68 µM. The TGI (SNB-19 CNS) was 10.5 µM, the GI50 (SNB-75 CNS) was 3.82 µM and the TGI (SNB-75 CNS) was 19.5 µM. The GI50 (SR leukemia) was 3.57 µM, the TGI (SR leukemia) was 20.3 µM and the GI50 (SW-620 colon) was 3.43 µM. It also gave a TGI (SW-620 colon) of 13 µM, a GI50 (T-47D breast) of 2.2 µM and a TGI (T-47D breast) of 9.1 µM. The GI50 (TK-10 renal) was 4.31 µM, the TGI (TK-10 renal) was 16.6 µM and the GI50 (U251 CNS) was 3.02 µM. The TGI (U251 CNS) was 12.2 µM, the GI50 (UACC-257 melanoma) was 4.81 µM and the TGI (UACC-257 melanoma) was 17.2 µM. It also gave a GI50 (UACC-62 melanoma) of 2.74 µM, a TGI (UACC-62 melanoma) of 10.6 µM and a GI50 (UO-31 renal) of 2.82 µM. It also gave a TGI (UO-31 renal) of 10.1 µM.
